Data as given in patent publication US12030929B2, “Fusobacterium nucleatum amyloid-like FadA for diagnosis and treatment of Fn-mediated pathogenesis” (The Trustees of Columbia University in the City of New York, priority 2021, dated 2024).

How the values were obtained:
Type in all cases: cell-based, Fusobacterium nucleatum
US1 (ΔfadA) = experiment: pH tolerance assay, fadA-deletion mutant; details: stationary phase; pH 4.0; 50 μg/ml Congo Red; 1 or 2 hours
Fn 12230 [1] = experiment: Biofilm assay: Fn biofilm formation on detergent-resistant Fn pellets; details: 0, 10 or 50 μg/ml Congo Red; 48 or 72 hours; crystal violet OD550
Experimental: FIG. 4A-4F. Functional analysis of amyloid-like FadA in vitro. 4A. Facilitation of Fn biofilm formation by amyloid-like FadA. An aliquot of 10 μg each of the detergent-resistant pellets prepared from of Fn 12230 (wild type), US1 (ΔfadA) and lam, or PBS, was added to the 96-well plates and incubated at 37° C. for 5 hours. Fresh culture of Fn 12230 was diluted to OD600 of 0.2 and an aliquot of 200 μl was added to the wells, followed by incubation at 37° C. for 48 or 72 hours under anaerobic conditions. Following washes, the biofilms were incubated with 100 μl 0.1% crystal violet for 15 min. After washing, 100 μl 95% ethanol was added to each well and the optical density at OD550 was measured in a microplate reader. The results shown are the average of four experiments each performed in duplicate. A representative image following 72 hours of incubation is shown in the top panel. **p<0.01. ***p<0.001 (t-test). 4B. Inhibition of biofilm formation mediated by detergent-resistant Fn pellets by Congo Red. An aliquot of 10 μg detergent-resistant pellets prepared from Fn 12230 (pellet) was added in 96-well plates in the presence of 0, 10 or 50 μg/ml Congo Red (CR), followed by addition of Fn 12230 and incubated as described above. The results shown are the average of four experiments each performed in duplicate. […]

Fn 12230 [2] = experiment: pH tolerance assay, wild-type Fn; details: stationary phase; pH 4.0; 50 μg/ml Congo Red; 1 or 2 hours

In the case of `Nc1c(/N=N/c2ccc(-c3ccc(/N=N/c4cc(S(=O)(=O)O)c5ccccc5c4N)cc3)cc2)cc(S(=O)(=O)O)c2ccccc12` [Congo Red], the “viability of US1 (ΔfadA) in acidic environment” value (US1 (ΔfadA)) is reported as “without affecting US1 (ΔfadA)”, the “biofilm formation mediated by detergent-resistant Fn pellets” value (Fn 12230 [1]) is reported as “inhibited biofilm formation in a dose-dependent manner” and the “viability of wild-type Fn in acidic environment” value (Fn 12230 [2]) is reported as “drastically reduced viability of wild-type Fn to the similar levels as US1”.
